These results are taken from ChEMBL document CHEMBL1201862, “PubChem BioAssay data set” (2004).

Structures are written as SMILES.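 Exposure lasted 48 hours, with cells grown in 96-well plates and compounds tested at five concentrations. Here, GI50 denotes the concentration required for 50% inhibition of growth.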 The source made the active and inactive calls. No stated cut-off is given here; in the data, active = GI50 up to about 1.1 µM and inactive = higher.

Among the test systems are NCI/ADR-RES; MCF7; CAKI-1; NCI-H460; ACHN; 786-0; MOLT-4; Hs-578T; HCT-116; OVCAR-8; SR; Malme-3M; NCI-H226; T47D; UACC-62; UACC-257; NCI-H522; OVCAR-5; SK-MEL-5; OVCAR-3.
What all share (assay): inhibition of tumour cell growth, NCI panel, 48 h

As to `CCN(CC)CC[n+]1ccc2c(C)c3[nH]c4ccc(O)cc4c3c(C)c2c1`, the GI50 in the test on NCI/ADR-RES is 14.6 µM (inactive); in the test with MCF7, 2 µM (inactive); in the test with CAKI-1, 13.8 µM (inactive); in the test with NCI-H460 it was 434 nM (active); in the test on ACHN it was 2.64 µM (inactive); in the test on 786-0 it was 3.05 µM (inactive). For the same compound, the GI50 in the test with MOLT-4 is 47.3 nM (active); in the test on Hs-578T it was 552 nM (active); in the test on HCT-116 it was 6.47 µM (inactive); in the test with OVCAR-8 it was 3.72 µM (inactive); in the test with SR, 27.8 nM (active); in the test with Malme-3M it was 5.83 µM (inactive). Further, the GI50 in the test on NCI-H226 is 1.05 µM (active); in the test on T47D it was 2.67 µM (inactive); in the test with UACC-62, 6.56 µM (inactive); in the test on UACC-257 it was 19.6 µM (inactive); in the test with NCI-H522 it was 1.96 µM (inactive); in the test on OVCAR-5, 15.9 µM (inactive). Also, the GI50 with SK-MEL-5 is 3.09 µM (inactive); in the test with OVCAR-3 it was 14.9 µM (inactive).
